Measurements: patent US20130178483A1, “Methods and Compositions for Inhibition of Bone Resorption” (Pharmacyclics, Inc., priority 2011, published 2013)

Legend:
[1] = 24 h post dose
[2] = system: BCR-activated calcium flux in Ramos cells; experiment: BCR-induced calcium flux assay in anti-IgM stimulated Ramos cells; details: Homo sapiens, read-out: Ramos Cell Ca Flux IC50 (nM)
[3] = system: INA-6 MM cells in implanted human bone; experiment: SCID-hu model of human multiple myeloma bone disease; type: in vivo, SCID-hu mice; details: 12 mg/kg, vs vehicle control
Description: FIG. 22A-22F show inhibition of multiple myeloma (MM) cell growth and MM-induced bone lysis in a murine model of human MM by administration of a Btk inhibitor described herein. […] Tissue slides were stained with H&E and immunohistochemically analyzed for CD138 (MM), TRAP(OC), and ALP (OB). Original magnification, ×200 except for ALP (×400). […] Effects of Btk inhibitor treatment were also quantitated in the left (mouse L) and right (mouse R) normal mouse extremities (FIG. 22F)
Btk inhibition by the compounds described herein and suppression of MM cell growth and […] were studied in vivo in a mouse model of MM bone disease, the SCID-hu model (FIG. 22A). MM cell growth was quantitated by measuring soluble IL6R (sIL6R) secreted by INA-6 MM cells in murine blood, and mice were treated with a compound of Formula (A), (B), (C), or (D) following first detection of tumor growth. […] Histologic analysis and immunohistochemistry for CD138 and TRAP staining confirmed decreased numbers of MM cells and reduced bone resorption activity in the human bones retrieved from the mice treated with the compound, as compared with the control group (FIG. 22B).

[4] = system: human monocyte derived osteoclasts; experiment: Human monocyte derived osteoclastogenesis (M-CSF/RANKL), TRAP and actin staining; type: cell-based
Description: Further, as depicted in FIG. 18, and FIG. 19, the BTK inhibitors described herein inhibit RANKL induced Btk, PLC-g, Erk and NF-kB activation of osteoclasts derived from human monocytes and murine RAW cells.
We confirmed by immunoblotting that activation of Btk mediates osteoclastogenesis induced by M-CSF and RANKL in CD14+ OC. precursor cells. Phosphorylation of Btk and its downstream PLCγ2 was induced by M-CSF/RANKL in CD14+ monocytes from human donors and mouse RAW 264.7 cells (FIG. 20A). […] At the end of 2-week culture of M-CSF/RANKL-stimulated normal donor monocytes (donor number>4) in plastic tissue culture plates, we observed a significant reduction in multinucleated mature Osteoclast (OC) numbers (TRAP+, >3 nuclei and >50 μm per OC cell, p<0.01), as well as irregular TRAP staining pattern of multinucleated OC influenced by the BtK inhibitor, in a dose-dependent fashion (FIG. 20C-E). To further assess the effects of PCI-32765 on osteoclastogenesis, OC precursor cells from human donors were cultured on glass cover slips, followed by immunofluorescence staining for actin cytoskeleton and pit formation assay for bone resorption activity. […] Most importantly, the Btk inhibitors described herein profoundly diminished bone erosion area formed by OCs cultured on dentine slices in pit formation assays, with or without dexamethasone (FIG. 21D).

SMILES: C=CC(=O)N1CCCC(n2nc(-c3ccc(Oc4ccccc4)cc3)c3c(N)ncnc32)C1 (stereo not drawn) [Compound 4, 1-(3-(4-amino-3-(4-phenoxyphenyl)-1H-pyrazolo[3,4-d]pyrimidin-1-yl)piperidin-1-yl)prop-2-en-1-one]
- levels twenty four hours post dose [1]: below the level of quantitation

SMILES: CN(C)C/C=C/C(=O)N1CCCC(n2nc(-c3ccc(Oc4ccccc4)cc3)c3c(N)ncnc32)C1 (stereo not drawn) [Compound 15, (E)-1-(3-(4-amino-3-(4-phenoxyphenyl)-1H-pyrazolo[3,4-d]pyrimidin-1-yl)piperidin-1-yl)-4-(dimethylamino)but-2-en-1-one]
- IC50 [2]: 36 nM

SMILES: C=CC(=O)N1CCC[C@@H](n2nc(-c3ccc(Oc4ccccc4)cc3)c3c(N)ncnc32)C1 [PCI-32765]
- MM-induced osteolysis / bone lysis in implanted human bone ([3]; micro-CT): significantly reduced osteolysis
- osteogenic activity (ALP expression, ALP+/BS) in implanted human bone ([3]; p<0.01): enhanced osteogenic activity
- numbers of mature OC, treated versus normal OC cultures ([4]; human OC precursor cells on glass cover slips): Significantly reduced numbers of mature OC
- spreading area per cell and number of nuclei per OC ([4]; human OCs on glass cover slips, p<0.01): expanded spreading area per cell
